Assay results from patent publication US10626144B2, “Peptide derivatives and uses thereof” (Nosopharm, priority 2014, dated 2020).
Numbered stars: 1 amine (or outer) side, 2 acyl side, 3 side chain; on linkers, the order of the positions; unused ones are H or OH. Square brackets hold non-standard residues; d marks the D form. Peptide text beside a SMILES is read from it. * marks the point of attachment. Phe(4-CN) = N#Cc1ccc(C[C@H](N)C(=O)O)cc1; Pro(cis-4-F) = O=C(O)[C@@H]1C[C@H](F)CN1; Dab(3S-OH) = NC[C@H](O)[C@H](N)C(=O)O; X4 = N=C(N)NCC/C=C(/N[*:1])C(=O)[*:2]; Phe(2-F) = N[C@@H](Cc1ccccc1F)C(=O)O; ΔZArg = N=C(N)NCC/C=C(\N)C(=O)O; Cit = NC(=O)NCCC[C@H](N)C(=O)O; Lys(Me) = CNCCCC[C@H](N)C(=O)O; hLys = NCCCCC[C@H](N)C(=O)O; dOrn = NCCC[C@@H](N)C(=O)O; Pip = O=C(O)[C@@H]1CCCCN1; hSer = N[C@@H](CCO)C(=O)O; Dab = NCC[C@H](N)C(=O)O; Nva = CCC[C@H](N)C(=O)O; Dap = NC[C@H](N)C(=O)O; NH(CH2)4NH2 = NCCCCN*

Columns and labels:
Assay in all cases: MIC, broth microdilution (CLSI), reference strain
Details in all cases: CAMHB
[1] = tested on: Pseudomonas aeruginosa ATCC 27853
[2] = tested on: Escherichia coli ATCC 25922
[3] = tested on: Acinetobacter baumannii ATCC 19606
[4] = tested on: Staphylococcus aureus ATCC 13709

Pa: MIC Pseudomonas aeruginosa ATCC 27853 [1]	Ec: MIC Escherichia coli ATCC 25922 [2]	Ab: MIC Acinetobacter baumannii ATCC 19606 [3]	Sa: MIC Staphylococcus aureus ATCC 13709 [4]	SMILES
− (>32 μg/mL)	+ (≤32 μg/mL)	− (>32 μg/mL)	+ (≤32 μg/mL)	C[C@H](NC(=O)[C@@H](NC(=O)[C@@H](N)CCCCN)[C@@H](O)CN)C(=O)NCC(=O)N[C@H](CCCN)C(=O)N1CCCC[C@H]1C(=O)N[C@@H](Cc1cnc[nH]1)C(=O)N[C@@H](CCCCN)C(=O)N/C(=C\CCNC(=N)N)C(=O)O [24.74] (H-K[Dab(3S-OH)]AG[dOrn][Pip]HK[ΔZArg]-OH)
− (>32 μg/mL)	− (>32 μg/mL)	− (>32 μg/mL)	+ (≤32 μg/mL)	N=C(N)NCC/C=C(\NC(=O)[C@H](CCCCN)NC(=O)[C@H](Cc1c[nH]cn1)NC(=O)[C@@H]1CCCN1C(=O)[C@@H](CCCN)NC(=O)CNC(=O)[C@H](CCO)NC(=O)[C@@H](NC(=O)[C@@H](N)CCCCN)[C@@H](O)CN)C(=O)O [225.1] (H-K[Dab(3S-OH)][hSer]G[dOrn]PHK[ΔZArg]-OH)
− (>32 μg/mL)	− (>32 μg/mL)	− (>32 μg/mL)	+ (≤32 μg/mL)	N=C(N)NCC/C=C(\NC(=O)[C@H](CCCCN)NC(=O)[C@H](Cc1cnc[nH]1)NC(=O)[C@@H]1CCCN1C(=O)[C@@H](CCCN)NC(=O)CNC(=O)[C@H](CN)NC(=O)[C@@H](NC(=O)[C@@H](N)CCCCN)[C@@H](O)CN)C(=O)O [221.1] (H-K[Dab(3S-OH)][Dap]G[dOrn]PHK[ΔZArg]-OH)
− (>32 μg/mL)	+ (≤32 μg/mL)	− (>32 μg/mL)	− (>32 μg/mL)	COC(=O)CC[C@H](NC(=O)[C@@H]1CCCN1C(=O)[C@@H](CCCN)NC(=O)CNC(=O)[C@H](C)NC(=O)[C@@H](NC(=O)[C@@H](N)CCCCN)[C@@H](O)CN)C(=O)N[C@@H](CCCCN)C(=O)N/C(=C\CCNC(=N)N)C(=O)O [24.120] (H-K[Dab(3S-OH)]AG[dOrn]PE(OMe)K[ΔZArg]-OH)
− (>32 μg/mL)	++ (≤8 μg/mL)	− (>32 μg/mL)	++ (≤8 μg/mL)	N=C(N)NCC/C=C(\NC(=O)[C@H](CCCCN)NC(=O)[C@H](Cc1ccccc1F)NC(=O)[C@@H]1CCCN1C(=O)[C@@H](CCCN)NC(=O)CNC(=O)[C@H](CCN)NC(=O)[C@@H](NC(=O)[C@@H](N)CCCCN)[C@@H](O)CN)C(=O)O [21.4] (H-K[Dab(3S-OH)][Dab]G[dOrn]P[Phe(2-F)]K[ΔZArg]-OH)
− (>32 μg/mL)	− (>32 μg/mL)	− (>32 μg/mL)	+ (≤32 μg/mL)	C[C@H](NC(=O)[C@@H](NC(=O)[C@@H](N)CCCCN)[C@@H](O)CN)C(=O)NCC(=O)N[C@H](CCCN)C(=O)N1CCC[C@H]1C(=O)N[C@@H](CCCNC(N)=O)C(=O)N[C@@H](CCCCN)C(=O)N/C(=C\CCNC(=N)N)C(=O)O [24.116] (H-K[Dab(3S-OH)]AG[dOrn]P[Cit]K[ΔZArg]-OH)
− (>32 μg/mL)	− (>32 μg/mL)	− (>32 μg/mL)	++ (≤8 μg/mL)	C[C@H](NC(=O)[C@@H](NC(=O)[C@@H](N)CCCCN)[C@@H](O)CN)C(=O)NCC(=O)N[C@H](CCCN)C(=O)N1CCC[C@H]1C(=O)N[C@@H](Cc1cnc[nH]1)C(=O)N[C@@H](CCCCCN)C(=O)N[C@H](CCCNC(=N)N)C(N)=O [24.121] (H-K[Dab(3S-OH)]AG[dOrn]PH[hLys][dR]-NH2)
− (>32 μg/mL)	− (>32 μg/mL)	− (>32 μg/mL)	++ (≤8 μg/mL)	C[C@H](NC(=O)[C@H](CCN)NC(=O)[C@@H](N)CCCCN)C(=O)NCC(=O)N[C@H](CCCN)C(=O)N1C[C@@H](F)C[C@H]1C(=O)N[C@@H](Cc1cnc[nH]1)C(=O)N[C@@H](CCCCN)C(=O)N/C(=C\CCNC(=N)N)C(=O)N[C@@H](CCCCN)C(=O)NCCCCN [14.4] (H-K[Dab]AG[dOrn][Pro(cis-4-F)]HK[ΔZArg]K-{NH(CH2)4NH2})
− (>32 μg/mL)	+ (≤32 μg/mL)	− (>32 μg/mL)	++ (≤8 μg/mL)	C[C@H](NC(=O)[C@H](CCN)NC(=O)[C@@H](N)CCCCN)C(=O)NCC(=O)N[C@H](CCCN)C(=O)N1CCC[C@H]1C(=O)N[C@@H](Cc1cnc[nH]1)C(=O)N[C@@H](CCCCN)C(=O)N/C(=C/CCNC(=N)N)C(=O)N[C@@H](CCCCN)C(=O)NCCCCN [14.1] (H-K[Dab]AG[dOrn]PHK[X4]K-{NH(CH2)4NH2})
++ (≤8 μg/mL)	++ (≤8 μg/mL)	+ (≤32 μg/mL)	++ (≤8 μg/mL)	N=C(N)NCC/C=C(\NC(=O)[C@H](CCCCN)NC(=O)[C@H](Cc1cnc[nH]1)NC(=O)[C@@H]1CCCN1C(=O)[C@@H](CCCN)NC(=O)CNC(=O)[C@@H](NC(=O)[C@@H](NC(=O)[C@@H](N)CCCCN)[C@@H](O)CN)[C@@H](O)CN)C(=O)N[C@H](CCCCN)C(=O)NCCCCN [22.1] (H-K[Dab(3S-OH)][Dab(3S-OH)]G[dOrn]PHK[ΔZArg][dK]-{NH(CH2)4NH2})
− (>32 μg/mL)	++ (≤8 μg/mL)	− (>32 μg/mL)	++ (≤8 μg/mL)	N#Cc1ccc(C[C@H](NC(=O)[C@@H]2CCCN2C(=O)[C@@H](CCCN)NC(=O)CNC(=O)[C@@H](NC(=O)[C@@H](NC(=O)[C@@H](N)CCCCN)[C@@H](O)CN)[C@@H](O)CN)C(=O)N[C@@H](CCCCN)C(=O)N/C(=C\CCNC(=N)N)C(=O)O)cc1 [22.38] (H-K[Dab(3S-OH)][Dab(3S-OH)]G[dOrn]P[Phe(4-CN)]K[ΔZArg]-OH)
− (>32 μg/mL)	++ (≤8 μg/mL)	− (>32 μg/mL)	++ (≤8 μg/mL)	CNCCCC[C@H](NC(=O)[C@@H](NC(=O)[C@@H](N)CCCCN)[C@@H](O)CN)C(=O)NCC(=O)N[C@H](CCCN)C(=O)N1CCC[C@H]1C(=O)N[C@@H](Cc1cnc[nH]1)C(=O)N[C@@H](CCCCN)C(=O)N/C(=C\CCNC(=N)N)C(N)=O [215.2] (H-K[Dab(3S-OH)][Lys(Me)]G[dOrn]PHK[ΔZArg]-NH2)
− (>32 μg/mL)	− (>32 μg/mL)	− (>32 μg/mL)	++ (≤8 μg/mL)	CCC[C@H](NC(=O)[C@@H](NC(=O)[C@@H](N)CCCCN)[C@@H](O)CN)C(=O)NCC(=O)N[C@H](CCCN)C(=O)N1CCC[C@H]1C(=O)N[C@@H](Cc1cnc[nH]1)C(=O)N[C@@H](CCCCN)C(=O)N/C(=C\CCNC(=N)N)C(=O)N[C@@H](CCCCN)C(=O)NCCCCN [210.1] (H-K[Dab(3S-OH)][Nva]G[dOrn]PHK[ΔZArg]K-{NH(CH2)4NH2})
